In series [1] the test system is MRSA USA 100 (ATCCBAA-1681). Kind of series: Minimum inhibitory concentration (MIC) assay, MRSA USA 100. Format: cell-based, meticillin-resistant Staphylococcus aureus. The following applies: Staphylococcus aureus; microdilution, overnight 35 °C; read-out: MRSA MICs USA 100. The source says:
(§1) The 1163 FDA-approved drugs were purchased as a library set from Selleckchem (catalog #L1300). For MIC assays, Ivacaftor, Mupirocin and Tigecycline were purchased from Santa Cruz Biotechnology (Dallas, TX, USA). All other test compounds were purchased from Sigma-Aldrich (St. Louis, MO, USA) and were used without further purification. MRSA strains USA 100 (ATCCBAA-1681), USA 300 (ATCC-BAA-1680), USA400 (ATCC-BAA-1707) and VISA (ATCC-700699) were purchased from ATCC (Manassas, VA, USA).
(§2) The MICs of antibiotics and peptides were determined using the microdilution method from the Clinical and Laboratory Standards Institute (CLSI) guidelines. Briefly, bacteria were grown fresh from frozen stock in MH2 agar at 37 °C. After an overnight incubation, five MRSA colonies were selected to grow in cation-adjusted MH2 broth (BD Biosciences catalog #212322) in a shaker incubator at 37 °C, 220 RPM. Cells were grown to an optical density (OD600) of 0.15–0.16 using a Microplate Spectrophotometer (Molecular Devices Spectra Max Plus), which corresponds to 1–2 × 10^8 CFU/mL. Test compounds were constituted into 4 mM DMSO stock solutions and then subjected to two-fold serial dilution in a 96-well plate with concentrations ranging from 100 to 0.2 μM in duplicates. The amount of 50 μL of microbial culture containing ~1–2 × 10^6 CFU/mL of microbes in the respective broths was introduced into each well containing 50 μL of compound. After an overnight incubation at 35 °C, OD600 measurements were conducted using the Microplate Spectrophotometer. The MIC was defined as the lowest drug concentration (μM) required to inhibit microbial growth.
A general note: Dilution methods test growth across graded concentrations, often in twofold steps.

The test system of series [2] is MRSA USA 300 (ATCC-BAA-1680). Kind of series: Minimum inhibitory concentration (MIC) assay, MRSA USA 300. Format: cell-based, meticillin-resistant Staphylococcus aureus. The following applies: Staphylococcus aureus; microdilution, overnight 35 °C; read-out: MRSA MICs USA 300.
From the text: as §1, §2

For series [3], the system named is MRSA USA400 (ATCC-BAA-1707). Kind of series: Minimum inhibitory concentration (MIC) assay, MRSA USA 400. Format: cell-based, meticillin-resistant Staphylococcus aureus. To be noted: Staphylococcus aureus; microdilution, overnight 35 °C; read-out: MRSA MICs USA 400.
From the text: as §1, §2

For the next series, the system named is VISA (ATCC-700699). Kind of series: Minimum inhibitory concentration (MIC) assay, VISA. It counts as cell-based, meticillin-resistant Staphylococcus aureus. The following applies: Staphylococcus aureus, ATCC 700699 / MRSA / VISA; microdilution, overnight 35 °C; read-out: MRSA MICs VISA.
From the text: as §1, §2

Series [4] relates to Adult normal human epidermal keratinocytes (NHEK). Kind of series: Human epidermal keratinocyte viability (GI50) assay. It counts as cell-based. The following applies: 120 h, 5 days incubation, CellTiter-Glo, read-out: Keratinocyte GI50. Here is the method:
Adult normal human epidermal keratinocytes (NHEK) were purchased from Lonza (catalog #00192627, Basel, Switzerland) and cultured in keratinocyte growth medium (Lonza KGM-Gold Bullet Kit) containing growth supplements (Lonza Reagent Pack) at 5% CO2 (37 °C). The cell viability assay was performed using the CellTiter-Glo Luminescent Cell Viability Assay protocol from Promega (www.promega.com, Fitchburg, WI, USA). Briefly, NHEK were treated with test compounds in keratinocyte growth medium in 96-well plates (Thermo Scientific Nunclon Delta, Waltham, MA, USA). Treated cells were incubated for 5 days at 5% CO2 (37 °C). Promega CellTiter-Glo Reagent was added and plates were shaken on an orbital shaker for […]. Next, well contents (100 μL) from each well were transferred into opaque 96-well plates (PerkinElmer OptiPlate-96) and luminescence measured by a microplate reader (Tecan Safire2).
For orientation: ATP-based viability assays read luminescence as a measure of living cells.

The subject of series [5] is panel of clinical MRSA strains (USA 100, USA 300, USA 400 and VISA). Kind of series: MIC assay against panel of clinical MRSA strains. Format: cell-based, meticillin-resistant Staphylococcus aureus. To be noted: Staphylococcus aureus; across USA 100, USA 300, USA 400 and VISA.
From the text: as §1, §2

For a further series, the system named is MRSA USA100. Kind of series: Single-point 10 μM bacteria growth inhibition assay. Format: cell-based, meticillin-resistant Staphylococcus aureus. To be noted: MRSA USA 100.
From the text: as §1
MRSA USA100 was grown from frozen glycerol stock on Mueller Hinton 2 (MH2) agar overnight at 37 °C. Five colonies were selected from the agar plate and grown in cation-adjusted MH2 broth (BD Biosciences catalog #212322, Franklin Lakes, NJ, USA) in a shaker incubator at 37 °C, 220 RPM. Cells were grown to 1–2 × 10^8 CFU/mL and diluted 1:100 in MH2 broth. An amount of 50 μL of test compounds pre-dissolved in MH2 broth at 20 μM concentrations were added in duplicates into each well in a 96-well plate. A total of 50 μL of bacteria inoculums containing ~1 × 10^6 CFU/mL of bacteria in MH2 broth was introduced into each well containing the test compounds. The final DMSO concentration was kept at 2.5% in each well. After an overnight incubation at 35 °C, optical density (OD600) of each well was determined using the Microplate Spectrophotometer (Molecular Devices Spectra Max Plus, Sunnyvale, CA, USA).

The conditions of series [6]: cited from earlier work.
The subject of series [7] is human carcinoma cell lines. To be noted: cited from earlier work.

Converted amounts (≈) assume the structure as drawn.

In general, GI50 refers to the concentration at which growth is held to half of that of the control. As to `O=C(Nc1ccc([N+](=O)[O-])cc1Cl)c1cc(Cl)ccc1O` [Niclosamide], the MIC was 0.78 µM (≈ 0.255 µg/mL) in [1]; 0.39 µM (≈ 0.128 µg/mL) in series [2]; 0.78 µM (≈ 0.255 µg/mL) in [3]; 0.39 µM (≈ 0.128 µg/mL) in the series with VISA (ATCC-700699); 0.39 to 0.78 µM (≈ 0.128 to 0.255 µg/mL) in series [5]. In addition, in series [4], the concentration for 50% growth inhibition (GI50) is under 200 nM. In the series on MRSA USA100, the “Antibacterial activity in single-point screen” value is “either bacteriostatic or bactericidal”. In addition, the “oral LD50” value in series [6] is over 1000 mg/kg. For the same molecule, the “cytotoxic concentrations towards human carcinoma cell lines” value in [7] was “sub-micromolar”.

Values taken from publication PMC4790305, “An FDA-Drug Library Screen for Compounds with Bioactivities against Meticillin-Resistant Staphylococcus aureus (MRSA)” (Antibiotics, 2015).
